Data from patent publication US20240197683A1 (JIANGSU UNIVERSITY, priority 2023, published 2024).
Where a name gives a salt, the structure may show the parent alone. Read-outs that look alike come from different tables or passages of the source.

Legend:
[1] = system: IL-6, IL-1β and TNF-α in mouse serum; experiment: Inflammatory factors in blood of mice with sepsis at different time points; format: in vivo
[2] = system: mice with sepsis-related acute lung injury; experiment: Sepsis-related acute lung injury in mice (BALF, leakage, arterial oxygen); format: in vivo
From the text: Comparisons of data between the four groups are of statistical significance.
Changes in the protein content of mouse BALF, the Evans blue content and the wet/dry weight ratio are shown. […] There is a downward trend in the arterial partial pressure of oxygen in all the injury group mice relative to the normal mice.

cytokine-infused rats = conditions: cited from earlier work
A549 cells = conditions: co-treatment with TNF-α or H2O2; cited from earlier work
[3] = system: TLR-4/MyD88/NF-κB signaling pathway; experiment: Related gene expression in lung tissues of mice with sepsis; format: in vivo; conditions: after treatment and prevention
From the text: The differences are of statistical significance.

[4] = system: mice with LPS-induced sepsis; experiment: Edema in organs (wet/dry weight ratio) of mice with sepsis; format: in vivo; conditions: prevention
[5] = system: mice with LPS-induced sepsis; conditions: 20 mg/kg LPS i.p.; for average survival time: LPS group 28.8±6.22 h
Method: Method: A mouse model of sepsis was induced by intraperitoneal injection of different toxic doses of 5 mg/kg, 10 mg/kg and 20 mg/kg LPS, and the effects of different doses of LPS on the survival rate of mice with sepsis were observed.
Sepsis was induced by intraperitoneal injection of 5 mg/kg, 10 mg/kg and 20 mg/kg LPS. […] Sepsis was induced by intraperitoneal injection of 20 mg/kg LPS.

[6] = system: mice with sepsis-related acute lung injury; experiment: Efficacy of HucMSC-NVs loaded with ergothioneine in sepsis-related acute lung injury; format: in vivo; conditions: FIG. 11 A-C
From the text: Referring to FIG. 11, three classical inflammatory factors (IL-1β, IL-6, and TNF-α) in BALF are shown in panels A-C.

[7] = prevention: tail vein injection 1 h before 20 mg/kg LPS i.p., FIG. 3
[8] = treatment: tail vein injection 2 h after 20 mg/kg LPS i.p., FIG. 4

In the case of `C[N+](C)(C)[C@@H](Cc1c[nH]c(=S)[nH]1)C(=O)[O-]` [ergothioneine, (S)-α-Carboxy-N,N,N-trimethyl-2-mercapto-1H-imidazole-4-ethanaminium inner salt], the “IL-1β release in blood” value [1, 7] is reported as “significantly reduced”, the “IL-6 release in blood” value [1, 7] is reported as “significantly reduced” and the “IL-6 release in blood” value [1, 8] is reported as “significantly reduced”. The “TNF-α release in blood” value [1, 8] was “significantly reduced”, the “arterial partial pressure of oxygen” value ([2]; different concentrations of EGT, FIG. 7 G) was “significantly improved” and the “inflammatory factor levels in BALF (IL-1β, IL-6 and TNF-α)” value ([2]; four groups with different concentrations of ergothioneine, FIG. 7 A-C) was “reduced inflammatory factor levels in BALF”. For the same compound, the acute lung injury (cytokine-infused rats) was “reduce acute lung injury”, the GSH level (A549 cells) was “protected the cells from decreases in the GSH level” and the NF-κB activation (A549 cells) was “inhibited NF-κB activation”. For the same compound, the TLR-4 gene expression ([3]; FIG. 9 A) was “significantly down-regulated”, the MyD88 gene expression ([3]; FIG. 9 B) was “significantly down-regulated” and the NF-κB gene expression ([3]; FIG. 9 C) was “significantly down-regulated”. For the same compound, the kidney edema [4] was “not significantly ameliorated”, the average survival time ([5]; 5 mg/kg ergothioneine) was 41.4 ± 10.48 h and the average survival time ([5]; 10 mg/kg ergothioneine) was 44.4 ± 3.921 h. The “mortality in mice with sepsis” value ([5]; FIG. 2) was “reduced mortality”, the average survival time ([5]; 50 mg/kg ergothioneine) was 46.8 ± 2.68 h and the mice died ([5]; prevention, 5 mg/kg ergothioneine) was 2 mice. For the same compound, the mice died ([5]; prevention, 10 mg/kg ergothioneine) was 3 mice, the mice died ([5]; prevention, 20 mg/kg ergothioneine) was “all” and the mice died ([5]; prevention, 50 mg/kg ergothioneine) was 1 mouse. The mice died ([5]; treatment, 5 mg/kg ergothioneine) was “all”, the mice died ([5]; treatment, 10 mg/kg ergothioneine) was “all” and the mice died ([5]; treatment, 20 mg/kg ergothioneine) was 4 mice. For the same compound, the mice died ([5]; treatment, 50 mg/kg ergothioneine) was 3 mice and the “level of inflammatory factors in BALF (IL-6, TNF-α, IL-1β)” value [6] was “reduced the level of inflammatory factors in BALF”.
